Reference: PubChem BioAssay AID264 (DTP/NCI, 2004)
Several values for one entry are separate records, joined by “and”; a condition that tells them apart may be missing. Identical values can stand only once. Records with an inconclusive call do not appear.

Test system: nude mice, LX-1 lung xenograft intrarenal, tumor weight T/C
Assay: NCI In Vivo Anticancer Drug Screen. Data for tumor model Human Lung LX-1 Xenograft (intrarenal inoculation) in NU/NU Swiss (nude) mice
Settings: endpoint: mean tumor weight change, higher = larger tumour
In short: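 Readout: T/C, i.e. treated-group tumor measurement over vehicle-control measurement. Mice bearing transplantable tumors were dosed with compound or vehicle.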

[1] = dose: 100.0 mg/kg/injection, schedule: Q01DX010 (sc), vehicle: saline with Tween-80
[2] = dose: 200.0 mg/kg/injection, schedule: Q01DX010 (sc), vehicle: saline with Tween-80
[3] = dose: 400.0 mg/kg/injection, schedule: Q01DX010 (sc), vehicle: saline with Tween-80
[4] = dose: 50.0 mg/kg/injection, schedule: Q01DX010 (sc), vehicle: Klucel (hydroxypropylcellulose) (HPC)
[5] = dose: 200.0 mg/kg/injection, schedule: Q01DX010 (sc), vehicle: Klucel (hydroxypropylcellulose) (HPC)
[6] = dose: 400.0 mg/kg/injection, schedule: Q01DX010 (sc), vehicle: Klucel (hydroxypropylcellulose) (HPC)
[7] = dose: 150.0 mg/kg/injection, schedule: Q04DX003 (sc), vehicle: saline with Tween-80
[8] = dose: 400.0 mg/kg/injection, schedule: Q04DX003 (sc), vehicle: saline with Tween-80
[9] = dose: 800.0 mg/kg/injection, schedule: Q04DX003 (sc), vehicle: saline with Tween-80
[10] = dose: 100.0 mg/kg/injection, schedule: Q04DX003 (sc), vehicle: saline with Tween-80
[11] = dose: 200.0 mg/kg/injection, schedule: Q04DX003 (sc), vehicle: saline with Tween-80
[12] = dose: 300.0 mg/kg/injection, schedule: Q04DX003 (sc), vehicle: Klucel (hydroxypropylcellulose) (HPC)
[13] = dose: 600.0 mg/kg/injection, schedule: Q04DX003 (sc), vehicle: Klucel (hydroxypropylcellulose) (HPC)
[14] = dose: 1200.0 mg/kg/injection, schedule: Q04DX003 (sc), vehicle: Klucel (hydroxypropylcellulose) (HPC)
[15] = dose: 2400.0 mg/kg/injection, schedule: Q04DX003 (sc), vehicle: Klucel (hydroxypropylcellulose) (HPC)

c1ccc2sc(SSN3CC4CCC(CC4)C3)nc2c1
T/C (dose: 50.0 mg/kg/injection, schedule: Q01DX010 (sc), vehicle: saline with Tween-80): 81 % of control
T/C [1]: 76 % of control
T/C [2]: 48 % of control
T/C [3]: 50 % of control

Cc1ccc2c(ccc(CC(=S)[S-])[n+]2C)c1
T/C [4]: 56 % of control
T/C (dose: 100.0 mg/kg/injection, schedule: Q01DX010 (sc), vehicle: Klucel (hydroxypropylcellulose) (HPC)): 99 % of control
T/C [5]: 207 % of control
T/C [6]: 72 % of control

ClCC[Se](Cl)(Cl)c1ccccc1
T/C (dose: 12.5 mg/kg/injection, schedule: Q04DX003 (sc), vehicle: saline): 92 % of control
T/C (dose: 25.0 mg/kg/injection, schedule: Q04DX003 (sc), vehicle: saline): 70 % of control
T/C (dose: 50.0 mg/kg/injection, schedule: Q04DX003 (sc), vehicle: saline): 46 % of control

COc1cc(C(=O)N/N=C/c2cccc([N+](=O)[O-])c2)cc(OC)c1OC
T/C [7]: 86 % of control

O=C(O)CSc1nc(-c2ccccc2)c(-c2ccccc2)n1-c1ccccn1
T/C (dose: 50.0 mg/kg/injection, schedule: Q01DX010 (sc), vehicle: water): 94 % of control
T/C (dose: 100.0 mg/kg/injection, schedule: Q01DX010 (sc), vehicle: water): 60 % of control

CC1C=NNC1=O (stereo not drawn)
T/C [1]: 97 % of control
T/C [2]: 270 % of control
T/C [3]: 82 % of control

CCCCCCCCCCS(=O)CC(CO)NC(=O)/C=C/c1c(C)[nH]c(=O)[nH]c1=O (stereo not drawn)
T/C (dose: 9.38 mg/kg/injection, schedule: Q04DX003 (sc), vehicle: distilled water + Tween-80): 108 % of control
T/C (dose: 18.75 mg/kg/injection, schedule: Q04DX003 (sc), vehicle: distilled water + Tween-80): 124 % of control

CC(=O)OC(C)C1C2=C(C(=O)CC1(C)O)C(=O)c1c(ccc(-c3ccc4c(c3O)C(=O)C3=C(C4=O)C(C(C)OC(C)=O)C(C)(O)CC3=O)c1O)C2=O (stereo not drawn)
T/C (dose: 3.75 mg/kg/injection, schedule: Q04DX003 (sc), vehicle: saline with Tween-80): 45 % of control
T/C (dose: 7.5 mg/kg/injection, schedule: Q04DX003 (sc), vehicle: saline with Tween-80): 86 % of control
T/C (dose: 15.0 mg/kg/injection, schedule: Q04DX003 (sc), vehicle: saline with Tween-80): 87 % of control
T/C (dose: 30.0 mg/kg/injection, schedule: Q04DX003 (sc), vehicle: saline with Tween-80): 62 % of control and 78 % of control

CC(=O)Oc1ccc[nH]c1=O
T/C [8]: 87 % of control
T/C [9]: 91 % of control

Cc1cc2c(c3oc(C4(C)OC4C4OC4C)cc(=O)c13)C(=O)c1c(O)c(C3CC(C)(N(C)C)C(O)C(C)O3)cc(C3CC(N(C)C)C(O)C(C)O3)c1C2=O (stereo not drawn)
T/C (dose: 0.03 mg/kg/injection, schedule: Q01DX010 (sc), vehicle: saline): 57 % of control
T/C (dose: 0.06 mg/kg/injection, schedule: Q01DX010 (sc), vehicle: saline): 66 % of control

CCc1ccc(C2=C(O)C(=O)C(c3ccc(CC)cc3)=C(O)C2=O)cc1
T/C [10]: 83 % of control
T/C [11]: 100 % of control
T/C [8]: 64 % of control
T/C [9]: 56 % of control

CSc1ncnc2c1ncn2C1OC(CO)C(O)C1O (stereo not drawn)
T/C (dose: 75.0 mg/kg/injection, schedule: Q04DX003 (sc), vehicle: saline + alcohol): 166 % of control
T/C (dose: 150.0 mg/kg/injection, schedule: Q04DX003 (sc), vehicle: saline + alcohol): 22 % of control

CONc1ccn(C2OC(CO)C(O)C2O)c(=O)n1 (stereo not drawn)
T/C (dose: 300.0 mg/kg/injection, schedule: Q04DX003 (sc), vehicle: saline): 62 % of control

CCC(=O)O[C@H]1CC[C@H]2[C@@H]3CCC4=CC(=O)CC[C@]4(C)[C@H]3CC[C@]12C
T/C [12]: 77 % of control
T/C [13]: 59 % of control
T/C [14]: 65 % of control
T/C [15]: 69 % of control

COC(=O)Nc1nc2ccc(C3(c4ccc(F)cc4)OCCO3)cc2[nH]1
T/C (dose: 25.0 mg/kg/injection, schedule: Q04DX003 (sc), vehicle: saline with Tween-80): 76 % of control
T/C (dose: 50.0 mg/kg/injection, schedule: Q04DX003 (sc), vehicle: saline with Tween-80): 71 % of control
T/C [10]: 89 % of control
T/C [11]: 79 % of control
T/C (dose: 1200.0 mg/kg/injection, schedule: Q04DX003 (sc), vehicle: saline with Tween-80): 17 % of control and 37 % of control

CS(=O)(=O)c1ncc(Br)cn1
T/C (dose: 75.0 mg/kg/injection, schedule: Q04DX003 (sc), vehicle: saline with Tween-80): 100 % of control
T/C [7]: 57 % of control
T/C (dose: 300.0 mg/kg/injection, schedule: Q04DX003 (sc), vehicle: saline with Tween-80): 84 % of control

O=CC(NC(=O)N(CCCl)N=O)C(O)C(O)C(O)CO (stereo not drawn)
T/C (dose: 1.5 mg/kg/injection, schedule: Q01DX010 (sc), vehicle: Klucel (hydroxypropylcellulose) (HPC)): 208 % of control
T/C (dose: 6.0 mg/kg/injection, schedule: Q01DX010 (sc), vehicle: Klucel (hydroxypropylcellulose) (HPC)): 20 % of control and 45 % of control
T/C (dose: 12.0 mg/kg/injection, schedule: Q01DX010 (sc), vehicle: Klucel (hydroxypropylcellulose) (HPC)): -23 % of control

Cc1cc(O)c(N=Nc2ccc(C(=O)O)cc2)cc1C
T/C [1]: 77 % of control
T/C [2]: 67 % of control
T/C [3]: 62 % of control
T/C (dose: 800.0 mg/kg/injection, schedule: Q01DX010 (sc), vehicle: saline with Tween-80): 59 % of control

CCC(C)Nc1ccc(N)cc1 (stereo not drawn)
T/C (dose: 9.0 mg/kg/injection, schedule: Q04DX003 (sc), vehicle: Klucel (hydroxypropylcellulose) (HPC)): 80 % of control
T/C (dose: 18.0 mg/kg/injection, schedule: Q04DX003 (sc), vehicle: Klucel (hydroxypropylcellulose) (HPC)): 104 % of control

CC12CC(C(=O)O)C3(O)CC(C)(C1)CC(C)(C2)C3 (stereo not drawn) (tested in a mixture with another compound)
T/C [12]: 86 % of control
T/C [13]: 57 % of control
T/C [14]: 105 % of control
T/C [15]: 105 % of control

COc1cc([C@@H]2c3cc4c(cc3[C@@H](OC3OC5CO[C@@H](c6cccs6)OC5C(O)C3O)[C@H]3COC(=O)[C@H]23)OCO4)cc(OC)c1O (stereo partly drawn)
T/C (dose: 1.0 mg/kg/injection, schedule: Q01DX010 (sc), vehicle: saline): 54 % of control
T/C (dose: 2.0 mg/kg/injection, schedule: Q01DX010 (sc), vehicle: saline): 78 % of control
T/C (dose: 4.0 mg/kg/injection, schedule: Q01DX010 (sc), vehicle: saline): 62 % of control and 78 % of control
T/C (dose: 8.0 mg/kg/injection, schedule: Q01DX010 (sc), vehicle: saline): 62 % of control and 78 % of control
T/C (dose: 16.0 mg/kg/injection, schedule: Q01DX010 (sc), vehicle: saline): 89 % of control
T/C (dose: 32.0 mg/kg/injection, schedule: Q01DX010 (sc), vehicle: saline): 39 % of control
T/C (dose: 33.0 mg/kg/injection, schedule: Q01DX010 (sc), vehicle: saline): 109 % of control
T/C (dose: 132.0 mg/kg/injection, schedule: Q01DX010 (sc), vehicle: saline): 56 % of control
T/C (dose: 264.0 mg/kg/injection, schedule: Q01DX010 (sc), vehicle: saline): 88 % of control

Cc1ccc2c(c1)C(=O)N(CC[P+](c1ccccc1)(c1ccccc1)c1ccccc1)C2=O
T/C (dose: 25.0 mg/kg/injection, schedule: Q01DX010 (sc), vehicle: Klucel (hydroxypropylcellulose) (HPC)): 51 % of control
T/C [4]: 37 % of control

C[PH+](C)C.C[PH+](C)C.[Au]
T/C (dose: 5.0 mg/kg/injection, schedule: Q04DX003 (sc), vehicle: suspension in saline): 111 % of control
T/C (dose: 10.0 mg/kg/injection, schedule: Q04DX003 (sc), vehicle: suspension in saline): 118 % of control
T/C (dose: 20.0 mg/kg/injection, schedule: Q04DX003 (sc), vehicle: suspension in saline): 76 % of control

OC(CBr)C(O)C(O)C(O)CBr (stereo not drawn)
T/C (dose: 15.0 mg/kg/injection, schedule: Q01DX010 (sc), vehicle: Klucel (hydroxypropylcellulose) (HPC)): 112 % of control
T/C (dose: 60.0 mg/kg/injection, schedule: Q01DX010 (sc), vehicle: Klucel (hydroxypropylcellulose) (HPC)): 57 % of control
T/C [5]: 89 % of control
T/C [6]: 96 % of control
T/C (dose: 800.0 mg/kg/injection, schedule: Q01DX010 (sc), vehicle: Klucel (hydroxypropylcellulose) (HPC)): 115 % of control
